Reference: patent US9517244B2, “Therapeutic combinations for use in neoplasia” (University of Florida Research Foundation, Inc., priority 2011, dated 2016)

How the values were obtained:
BxPC3 = test: MTT assay, pancreatic cancer cell line; type: cell-based, human; conditions: Homo sapiens, BXPC-3; BxPC3 (dFdC-sensitive); single agent; 72 h; read-out: IC50
DNA ligase I = DNA ligase I (Homo sapiens, UniProt P18858); test: DNA ligase I activity in vitro; type: biochemical; conditions: DNA ligase I 1 nM
Chain of DNA ligase I (P18858 whole entry, species assumed): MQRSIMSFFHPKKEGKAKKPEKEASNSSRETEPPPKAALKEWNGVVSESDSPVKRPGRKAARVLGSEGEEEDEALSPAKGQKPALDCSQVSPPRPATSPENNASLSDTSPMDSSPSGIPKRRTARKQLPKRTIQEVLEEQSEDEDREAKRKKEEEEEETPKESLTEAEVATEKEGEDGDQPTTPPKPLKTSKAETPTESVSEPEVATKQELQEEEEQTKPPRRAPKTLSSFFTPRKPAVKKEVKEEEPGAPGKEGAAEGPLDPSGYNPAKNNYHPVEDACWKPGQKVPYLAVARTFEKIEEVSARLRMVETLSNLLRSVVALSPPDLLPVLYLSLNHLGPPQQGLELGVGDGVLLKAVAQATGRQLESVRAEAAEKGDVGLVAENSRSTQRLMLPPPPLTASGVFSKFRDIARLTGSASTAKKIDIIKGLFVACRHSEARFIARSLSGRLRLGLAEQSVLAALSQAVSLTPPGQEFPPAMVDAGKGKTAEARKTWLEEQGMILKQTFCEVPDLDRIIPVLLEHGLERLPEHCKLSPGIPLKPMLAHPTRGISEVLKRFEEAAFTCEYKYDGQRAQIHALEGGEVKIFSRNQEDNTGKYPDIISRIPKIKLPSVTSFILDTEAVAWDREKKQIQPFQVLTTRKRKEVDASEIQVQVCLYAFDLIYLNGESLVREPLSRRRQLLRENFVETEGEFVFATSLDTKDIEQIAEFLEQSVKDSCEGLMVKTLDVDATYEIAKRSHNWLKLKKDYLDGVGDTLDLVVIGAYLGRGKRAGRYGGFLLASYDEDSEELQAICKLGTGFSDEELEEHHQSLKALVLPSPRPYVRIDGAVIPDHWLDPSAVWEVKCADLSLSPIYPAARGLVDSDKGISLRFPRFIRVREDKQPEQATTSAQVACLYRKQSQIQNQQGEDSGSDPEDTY
Method: Lanes 4-7 contained increasing concentrations of NSC-30049 (0.5, 1, 2.5, and 5 μM, respectively). The arrows indicate the positions of the 63-mer substrate and the products. […] Data are representative of three different experiments.

[1] = tested on: CD133, Nanog, Oct4, Sox2 expression in GBM-L0 stem cells; test: qRT-PCR of self-renewal genes in GBM-L0 stem cells; type: cell-based; conditions: 2.5 μM NSC-30049 + 10 or 100 μM TMZ, 36 h, compared to either alone
Method: Cells were pretreated with 2.5 μM of NSC30049 or 10 or 100 μM TMZ alone or in combination with NSC-30049 for 36 h. Then, total RNA was isolated and processed for gRT-PCR. Data presented are the mean±SE of three different measurements. […] Treatment with NSC-30049 or TMZ reduced the expression of aldehyde dehydrogenase gene Aldh1a7 in GBM-LO stem cell line in vitro, but not treatment with NSC-30049 and TMZ. Cells were pretreated with 2.5 μM of NSC30049 or 10 or 100 μM of TMZ alone or in combination with NSC-30049 for 36 h. Then, total RNA was isolated and processed for qRT-PCR. Data presented are the mean±SE of three different measurements.
Without being bound to a particular theory, the effect of administration of NSC-30049 in combination with temozolomide (TMZ) on the expression of self-renewal marker genes of […] was analyzed. Self-renewal marker genes are highly expressed in colon cancer stem cells compared to human parental cancer cells. qRT-PCR data of CD133+, Oct4, Sox2 and Nanog gene expression levels of GBM-L0 stem cells was obtained (FIG. 14A). Cells were pretreated with 2.5 μM of NSC30049 or 10 or 100 μM of TMZ alone or in combination with NSC-30049 for 36 h. Then, total RNA was isolated and processed for qRT-PCR. Data presented are the mean±SE of three different measurements. […]

HPAC = test: MTT assay, pancreatic cancer cell line; type: cell-based, human; conditions: Homo sapiens; HPAC (dFdC-sensitive); single agent; 72 h; read-out: IC50
U138 = test: MTT assay, brain cancer cell line; type: cell-based; conditions: 120 h, single agent, read-out: IC50 of NSC-30049
Method: (§1) The use of NSC-30049 as a chemopreventive agent for the treatment of brain cancer was also tested. NSC-30049 in combination with temozolomide was administered to brain cancer cell lines, including U118, U138, U87MG, A172, and T98 cell lines (Table 6). Cells were pretreated with the indicated concentrations of NSC-30049 followed by TMZ for 120 h. After treatment, cells were processed for the determination of viability by cell proliferation assay (MTT assay). The data from the graph was used for the determination of IC50, which is presented as the mean±SE of three different estimations. Increasing the concentration of NSC-30049 decreased the IC50 of temozolomide for all cell lines tested, regardless of whether they were MMR proficient or deficient.

U87MG = test: MTT assay, brain cancer cell line; type: cell-based; conditions: Homo sapiens, U-87 MG, 120 h, single agent, read-out: IC50 of NSC-30049
Method: as §1

A172 = test: MTT assay, brain cancer cell line; type: cell-based; conditions: Homo sapiens, A 172, 120 h, single agent, read-out: IC50 of NSC-30049
Method: as §1

U118 = test: MTT assay, brain cancer cell line; type: cell-based; conditions: 120 h, single agent, read-out: IC50 of NSC-30049
Method: as §1

T98 = test: MTT assay, brain cancer cell line; type: cell-based; conditions: Homo sapiens, T98, 120 h, single agent, read-out: IC50 of NSC-30049
Method: as §1

[2] = tested on: CD133, Nanog, Oct4, Sox2 expression in human parental cancer cells; test: qRT-PCR of self-renewal marker genes in parental cancer cells; type: cell-based; conditions: 1.25 μM NSC-30049 + 1.25 μM OPT, 72 h, compared to either alone
Method: Cells were treated with 1.25 μM of NSC-30049 and 1.25 μM of OPT either alone or in combination for 72 h. Data are mean±SD of triplicate experiments. FIG. 9B depicts the inhibition in expression of self-renewal marker genes of colon cancer stem cells, qRT-PCR data of CD133+, Oct4, Sox2 and Nanog gene expression levels of parental cancer cells and colon cancer stem cells was obtained. Cells were treated with 1.25 μM of NSC-30049 and 1.25 μM of OPT either alone or in combination for 72 h. Fold change in gene expression values is shown as mean±SD of three experiments and are normalized to GAPDH gene expression.
Without being bound to a particular theory, the effect of administration of NSC-30049 in combination with oxaliplatin (OPT) on the expression of self-renewal marker genes of colon cancer stem cells was analyzed. Self-renewal marker genes are highly expressed in colon cancer stem cells compared to human parental cancer cells. qRT-PCR data of CD133+, Oct4, Sox2 and Nanog gene expression levels of parental cancer cells and colon cancer stem cells was obtained (FIG. 9B). Cells were treated with 1.25 μM of NSC-30049 and 1.25 μM of OPT either alone or in combination for 72 h. The fold change in gene expression values is shown as mean±SD of three experiments and were normalized to GAPDH gene expression. […]

SMILES: ClCC=CC[N+]12CN3CN(CN(C3)C1)C2 [NSC-30049, 1-(4-Chloro-2-butenyl)-1λ˜5˜,3,5,7-tetraazatricyclo[3.3.1.1˜3,7˜]decane]
- IC50 (BxPC3): 3.87 ± 0.24 µM
- effect on DNA ligase I activity (DNA ligase I): did not affect DNA ligase I activity
- expression of CD133, Nanog, Oct4, and Sox2 [1]: significantly inhibited the expression of CD133, Nanog, Oct4, and Sox2
- IC50 (HPAC): 4.44 ± 0.28 µM
- IC50 (U138): 2.1 ± 0.1 µM
- IC50 (U87MG): 5.6 ± 1 µM
- IC50 (A172): 6.5 ± 0.3 µM
- IC50 (U118): 2.6 ± 0.1 µM
- IC50 (T98): 10.1 ± 0.3 µM
- expression of CD133, Nanog, Oct4, and Sox2 [2]: inhibited the expression of CD133, Nanog, Oct4, and Sox2 in human parental cancer cells
